Results from US10085990B2, “Tricyclic compounds as modulators of TNF-α synthesis and as PDE4 inhibitors” (vTv Therapeutics LLC, priority 2008, dated 2018).
pIC50: −log10 of the molar value.

Test system: TNF synthesis in human PBMC
Test: Human PBMC TNF Synthesis Assay
Assay type: cell-based
Settings: LPS-stimulated human PBMC, overnight incubation, TNF ELISA; read-out: TNF inhib.
Procedure: Human PBMC TNF Synthesis Assay
Human PBMC were obtained by from a healthy human donor leuko pak. Typically, all donors were pre-screened for STD, HIV and have been given a physical by a physician. One to two ampoules were thawed at 37° C. and then resuspended in 45 to 85 mL of RPMI+10% FBS to a final concentration of 2.5×10^6 cells/mL. Resuspended cells were filtered to remove any large clumps.
Prepare compounds for addition to cells: All compounds were DMSO stocks at 20 mM. Working stock for cell testing were prepared as 4× concentrated material in RPMI+10% FBS. Compounds were added to a polypropylene block and then diluted with the appropriate amount of RPMI+10% FBS. Typically 2.6 μL of 20 mM stock was diluted to 650 μL final volume to yield an 80 μM starting concentration in the stocks. RPMI was added to DMSO stock by pipetting into the tube or block. The compounds were then serial diluted with RPMI+10% FBS. The final DMSO concentrations were not greater than 0.5% in the assay.
Compounds were added to the cells as 4× working stock. 50 μL of compound was prepared above is added to the cells and re-equilibrated in a humidified 5% CO2 incubator at 37° C. for 30 minutes.
A stock of LPS was prepared using RPMI+10% FBS. To prepare the stock, 2.8 μL of LPS (5 mg/mL; Sigma Cat #L3024) was added to 35 mL of media. 50 μL of the LPS in media was added to the cells. Control cultures without LPS received only RPMI+10% FBS. After an overnight incubation at 37° C., the cell culture supernatant was harvested and stored in a polypropylene 96 well plate.
Samples were tested for TNF as per the manufacturer's instructions (TNF ELISA; R&D Systems, Cat #DY210). The samples were serially diluted with PBS+1% BSA to the appropriate dilution condition for the cell prep, typically a 1:4 or 1:6 dilution.

Structure (SMILES)	pIC50
CCn1c(=O)c2cnc3c(OC)cccc3c2n(C2CCCC2)c1=O [Example 1, 1-cyclopentyl-3-ethyl-7-methoxy-1H-pyrimido[5,4-c]quinoline-2,4-dione]	6.74
CCn1c(=O)c2cnc3c(OC)cccc3c2n(-c2ccc(OC)c(OC)c2)c1=O [Example 4, 1-(3,4-Dimethoxy-phenyl)-3-ethyl-7-methoxy-1H-pyrimido[5,4-c]quinoline-2,4-dione]	4.85
COc1cccc2c1ncc1c(=O)n(C(C)C)c(=O)n(C3CCCC3)c12 [Example 5, 1-Cyclopentyl-3-isopropyl-7-methoxy-1H-pyrimido[5,4-c]quinoline-2,4-dione]	6.57
COc1cccc2c1ncc1c(=O)n(-c3cccs3)c(=O)n(C3CCCC3)c12 [Example 10, 1-Cyclopentyl-7-methoxy-3-thiophen-2-yl-1H-pyrimido[5,4-c]quinoline-2,4-dione]	6.39
CCCn1c(=O)n(CC)c(=O)c2cnc3c(OC)cccc3c21 [Example 16, 3-Ethyl-7-methoxy-1-propyl-1H-pyrimido[5,4-c]quinoline-2,4-dione]	6.17
CCCCn1c(=O)n(CC)c(=O)c2cnc3c(OC)cccc3c21 [Example 17, 1-Butyl-3-ethyl-7-methoxy-1H-pyrimido[5,4-c]quinoline-2,4-dione]	6.41
CCn1c(=O)c2cnc3c(OC)cccc3c2n(CC(C)C)c1=O [Example 18, 3-Ethyl-1-isobutyl-7-methoxy-1H-pyrimido[5,4-c]quinoline-2,4-dione]	5.96
CCn1c(=O)c2cnc3c(OC)cc(Cl)cc3c2n(C2CCCC2)c1=O [Example 28, 9-Chloro-1-cyclopentyl-3-ethyl-7-methoxy-1H-pyrimido[5,4-c]quinoline-2,4-dione]	5.46
CCn1c(=O)c2cnc3c(Cl)cccc3c2n(C2CCCC2)c1=O [Example 30, 7-Chloro-1-cyclopentyl-3-ethyl-1H-pyrimido[5,4-c]quinoline-2,4-dione]	5.60
CCCc1cccc2c1ncc1c(=O)n(CC)c(=O)n(C3CCCC3)c12 [Example 32, 1-Cyclopentyl-3-ethyl-7-propyl-1H-pyrimido[5,4-c]quinoline-2,4-dione]	5.59
CCn1c(=O)c2cnc3c(C(C)C)cccc3c2n(C2CCCC2)c1=O [Example 33, 1-Cyclopentyl-3-ethyl-7-isopropyl-1H-pyrimido[5,4-c]quinoline-2,4-dione]	4.70
CCn1c(=O)c2cnc3c(OC(F)(F)F)cccc3c2n(C2CCCC2)c1=O [Example 34, 1-Cyclopentyl-3-ethyl-7-trifluoromethoxy-1H-pyrimido[5,4-c]quinoline-2,4-dione]	5.44
CCn1c(=O)c2cnc3c(OC)cccc3c2n(C(C)C)c1=O [Example 37, 3-Ethyl-1-isopropyl-7-methoxy-1H-pyrimido[5,4-c]quinoline-2,4-dione]	4.70
CCC(C)n1c(=O)c2cnc3c(OC)cccc3c2n(C2CCCC2)c1=O (stereo not drawn) [Example 38, 3-sec-Butyl-1-cyclopentyl-7-methoxy-1H-pyrimido[5,4-c]quinoline-2,4-dione]	6.35
COc1cccc2c1ncc1c(=O)n(-c3ccccc3)c(=O)n(C3CCCC3)c12 [Example 39, 1-Cyclopentyl-7-methoxy-3-phenyl-1H-pyrimido[5,4-c]quinoline-2,4-dione]	5.89
CCn1c(=O)c2cnc3c(C)cccc3c2n(C2CCCC2)c1=O [Example 41, 1-Cyclopentyl-3-ethyl-7-methyl-1H-pyrimido[5,4-c]quinoline-2,4-dione]	6.30
CCn1c(=O)c2cnc3c(OC)cccc3c2n(C2CCC(C)CC2)c1=O (stereo not drawn) [Example 45, 3-Ethyl-7-methoxy-1-(4-methyl-cyclohexyl)-1H-pyrimido[5,4-c]quinoline-2,4-dione]	6.70
CCOC(=O)Cn1c(=O)c2cnc3c(OC)cccc3c2n(C2CCCC2)c1=O [Example 46, (1-Cyclopentyl-7-methoxy-2,4-dioxo-1,4-dihydro-2H-pyrimido[5,4-c]quinolin-3-yl)-acetic acid ethyl ester]	6.00
COc1cccc2c1ncc1c(=O)n(C)c(=O)n(C3CCCC3)c12 [Example 48, 1-Cyclopentyl-7-methoxy-3-methyl-1H-pyrimido[5,4-c]quinoline-2,4-dione]	5.85
COc1cccc2c1ncc1c(=O)n(-c3cc(C)cs3)c(=O)n(C3CCCC3)c12 [Example 51, 1-Cyclopentyl-7-methoxy-3-(4-methyl-thiophen-2-yl)-1H-pyrimido[5,4-c]quinoline-2,4-dione]	7.52
COc1cccc2c1ncc1c(=O)n(-c3cccc(C)c3)c(=O)n(C3CCCC3)c12 [Example 54, 1-Cyclopentyl-7-methoxy-3-m-tolyl-1H-pyrimido[5,4-c]quinoline-2,4-dione]	8.22
COc1cccc2c1ncc1c(=O)n(-c3ccc(C)cc3)c(=O)n(C3CCCC3)c12 [Example 55, 1-Cyclopentyl-7-methoxy-3-p-tolyl-1H-pyrimido[5,4-c]quinoline-2,4-dione]	6.79
COc1cccc2c1ncc1c(=O)n(-c3cccc(Cl)c3)c(=O)n(C3CCC(C)CC3)c12 (stereo not drawn) [Example 72, 3-(3-Chloro-phenyl)-7-methoxy-1-(4-methyl-cyclohexyl)-1H-pyrimido[5,4-c]quinoline-2,4-dione]	8.40
COc1cccc2c1ncc1c(=O)n(-c3cccc(Cl)c3)c(=O)n(C3CCCC3)c12 [Example 73, 3-(3-Chloro-phenyl)-1-cyclopentyl-7-methoxy-1H-pyrimido[5,4-c]quinoline-2,4-dione]	8.05
CCc1cccc(-n2c(=O)c3cnc4c(OC)cccc4c3n(C3CCCC3)c2=O)c1 [Example 75, 1-Cyclopentyl-3-(3-ethyl-phenyl)-7-methoxy-1H-pyrimido[5,4-c]quinoline-2,4-dione]	8.22
COc1cccc2c1ncc1c(=O)n(-c3cccc(C)c3)c(=O)n(C3CCC(C)CC3)c12 (stereo not drawn) [Example 78, 7-Methoxy-1-(4-methyl-cyclohexyl)-3-m-tolyl-1H-pyrimido[5,4-c]quinoline-2,4-dione]	9.00
COc1cccc2c1ncc1c(=O)n(-c3cccc(Cl)c3)c(=O)n(C3CCC(F)(F)CC3)c12 [Example 87, 3-(3-Chloro-phenyl)-1-(4,4-difluoro-cyclohexyl)-7-methoxy-1H-pyrimido[5,4-c]quinoline-2,4-dione]	8.70
COc1cccc2c1ncc1c(=O)n(-c3cccc(Cl)c3)c(=O)n(C3CCN(C(=O)OC(C)(C)C)CC3)c12 [Example 88, 4-[3-(3-Chloro-phenyl)-7-methoxy-2,4-dioxo-3,4-dihydro-2H-pyrimido[5,4-c]quinolin-1-yl]-piperidine-1-carboxylic acid tert-butyl ester]	9.00
COc1cccc2c1ncc1c(=O)n(-c3cccc(Cl)c3)c(=O)n(C3CCNCC3)c12 [Example 89, 3-(3-Chloro-phenyl)-7-methoxy-1-piperidin-4-yl-1H-pyrimido[5,4-c]quinoline-2,4-dione.dihydrochlode]	8.30
COc1cccc2c1ncc1c(=O)n(-c3cccc(Cl)c3)c(=O)n(C3CCN(C(C)=O)CC3)c12 [Example 90, 1-(1-Acetyl-piperidin-4-yl)-3-(3-chloro-phenyl)-7-methoxy-1H-pyrimido[5,4-c]quinoline-2,4-dione]	8.70
